Measurements reported in patent US20150141381A1, “TETRACYCLINE COMPOUNDS HAVING TARGET THERAPEUTIC ACTIVITIES” (Paratek Pharmaceuticals, Inc., priority 2001, published 2015).
Read-outs that look alike come from different tables or passages of the source.

Columns and labels:
S. aureus RN450 = assay: In Vitro Anti-Bacterial Activity Assay (MIC), gram positive; type: cell-based; conditions: for MIC: Staphylococcus aureus, RN450, 18 h
E. coli mL308 225 = assay: In Vitro Anti-Bacterial Activity Assay (MIC), gram negative; type: cell-based; conditions: for MIC: Escherichia coli, ML308225, 18 h
[1] = gram positive bacteria, read-out: Antibiotic Activity Gram + (MIC)
[2] = gram negative bacteria, read-out: Antibiotic Activity Gram − (MIC)
[3] = MIC class, Table 3, read-out: Antibiotic Activity Gram +
[4] = MIC class, Table 3, read-out: Antibiotic Activity Gram −

| SMILES | MIC (S. aureus RN450; [1]) [µg/mL] | MIC (E. coli mL308 225; [2]) [µg/mL] | MIC (S. aureus RN450; [3]) [µg/mL] | MIC (E. coli mL308 225; [4]) [µg/mL] | other results |
| --- | --- | --- | --- | --- | --- |
| CC(C)CNCc1cc(N(C)C)c2c(c1O)C(=O)C1=C(O)[C@]3(O)C(=O)C(C(N)=O)=C(O)[C@@H](N(C)C)[C@@H]3C[C@@H]1C2 [drawing 3469] | < 4 | < 4 |  |  |  |
| CCc1ccc(O)c2c1C[C@H]1C[C@H]3[C@@H](N(C)C)C(O)=C(C(N)=O)C(=O)[C@@]3(O)C(O)=C1C2=O [DM] |  |  | < 4 | > 4 |  |
| CN(C)c1ccc(O)c2c1C[C@H]1C[C@H]3[C@H](N(C)C)C(O)=C(C(N)=O)C(=O)[C@@]3(O)C(O)=C1C2=O [B] |  |  | < 4 | < 4 |  |
| CC1c2ccc(-c3cc4ccccc4o3)c(O)c2C(=O)C2=C(O)[C@]3(O)C(=O)C(C(N)=O)=C(O)[C@@H](N(C)C)[C@@H]3[C@@H](O)[C@@H]21 (some centres unmarked) |  |  |  |  | MIC (S. aureus RN450; MIC class, Table 3 (Continued), read-out: Gram+ activity): < 4 µg/mL; MIC (E. coli mL308 225; MIC class, Table 3 (Continued), read-out: Gram− activity): < 4 µg/mL |
| COc1ccc(OC(=O)Nc2cc(N(C)C)c3c(c2O)C(=O)C2=C(O)[C@]4(O)C(=O)C(C(N)=O)=C(O)[C@H](N(C)C)[C@@H]4C[C@@H]2C3)cc1 [DV] |  |  |  |  | MIC (S. aureus RN450; read-out: Antibiotic Activity Gram +): > 4 µg/mL; MIC (E. coli mL308 225; read-out: Antibiotic Activity Gram −): > 4 µg/mL |
| CN(C)[C@@H]1C(O)=C(C(N)=O)C(=O)[C@@]2(O)C(O)=C3C(=O)c4c(O)c(N)cc(-c5ccoc5)c4C[C@H]3C[C@@H]12 [KT] |  |  | < 4 | < 4 |  |
| C[C@H]1c2ccc(-c3cccc(C=O)c3)c(O)c2C(=O)C2=C(O)[C@]3(O)C(=O)C(C(N)=O)=C(O)[C@@H](N(C)C)[C@@H]3[C@@H](O)[C@@H]21 | < 4 | < 4 |  |  |  |
| CCCc1ccc(O)c2c1C[C@H]1C[C@H]3[C@H](N(C)C)C(O)=C(C(N)=O)C(=O)[C@@]3(O)C(O)=C1C2=O | < 4 | < 4 |  |  |  |
| CN(C)c1cc(CNCCC(F)(F)F)c(O)c2c1C[C@H]1C[C@H]3[C@H](N(C)C)C(O)=C(C(N)=O)C(=O)[C@@]3(O)C(O)=C1C2=O [drawing 3690] |  |  |  |  | Antibiotic Activity Gram + (MIC) (S. aureus RN450; gram positive bacteria): ** (compounds with MIC less than or equal to 4 μg/ml are indicated with **); Antibiotic Activity Gram − (MIC) (E. coli mL308 225; gram negative bacteria): ** (compounds with MIC less than or equal to 4 μg/ml are indicated with **) |
| C=C(Cl)c1cc(C(C)(C)C)c(O)c2c1C[C@H]1C[C@H]3[C@H](N(C)C)C(O)=C(C(N)=O)C(=O)[C@@]3(O)C(O)=C1C2=O | < 4 | < 4 |  |  |  |
| CCOC(=O)CNCc1ccc(-c2ccc(O)c3c2C[C@H]2C[C@H]4[C@@H](N(C)C)C(O)=C(C(N)=O)C(=O)[C@@]4(O)C(O)=C2C3=O)cc1 [GK] |  |  | < 4 | > 4 |  |
| CC(CF)N(C)Cc1cc(N(C)C)c2c(c1O)C(=O)C1=C(O)[C@]3(O)C(=O)C(C(N)=O)=C(O)[C@@H](N(C)C)[C@@H]3C[C@@H]1C2 (some centres unmarked) |  |  |  |  | MIC (S. aureus RN450; read-out: Antibiotic Activity Gram + (MIC)): < 4 µg/mL; MIC (E. coli mL308 225; read-out: Antibiotic Activity Gram − (MIC)): > 4 µg/mL |
| CN(C)[C@@H]1C(O)=C(C(N)=O)C(=O)[C@@]2(O)C(O)=C3C(=O)c4c(O)ccc(C#Cc5cccc(O)c5)c4C[C@H]3C[C@@H]12 [BI] |  |  | < 4 | > 4 |  |
| C=C(Cl)c1ccc(O)c2c1C[C@H]1C[C@H]3[C@H](N(C)C)C(O)=C(C(N)=O)C(=O)[C@@]3(O)C(O)=C1C2=O [AW] |  |  | < 4 | < 4 |  |
| CN(C)c1cc(NCc2cc(F)cc(F)c2)c(O)c2c1C[C@H]1C[C@H]3[C@H](N(C)C)C(O)=C(C(N)=O)C(=O)[C@@]3(O)C(O)=C1C2=O | > 4 | > 4 |  |  |  |
| CCOC(=O)NCc1cc(N(C)C)c2c(c1O)C(=O)C1=C(O)[C@]3(O)C(=O)C(C(N)=O)=C(O)[C@H](N(C)C)[C@@H]3C[C@@H]1C2 [ES] |  |  | < 4 | > 4 |  |
| COC(=O)c1ccc(CNCc2cc(N(C)C)c3c(c2O)C(=O)C2=C(O)[C@]4(O)C(=O)C(C(N)=O)=C(O)[C@@H](N(C)C)[C@@H]4C[C@@H]2C3)cc1 | < 4 | > 4 |  |  |  |

| SMILES | MIC (S. aureus RN450; [1]) [µg/mL] | MIC (E. coli mL308 225; [2]) [µg/mL] | MIC (S. aureus RN450; [3]) [µg/mL] | MIC (E. coli mL308 225; [4]) [µg/mL] | other results |
| --- | --- | --- | --- | --- | --- |
| CN(C)[C@@H]1C(O)=C(C(N)=O)C(=O)[C@@]2(O)C(O)=C3C(=O)c4c(O)c(CS(C)(=O)=O)cc(-c5ccccn5)c4C[C@H]3C[C@@H]12 | < 4 | > 4 |  |  |  |
| CN(C)c1cc(CNC(=O)OCC(C)(C)C)c(O)c2c1C[C@H]1C[C@H]3[C@H](N(C)C)C(O)=C(C(N)=O)C(=O)[C@@]3(O)C(O)=C1C2=O [EN] |  |  | < 4 | > 4 |  |
| CN(C)c1cc(-c2ccccn2)c2c(c1O)C(=O)C1=C(O)[C@]3(O)C(=O)C(C(N)=O)=C(O)[C@@H](N(C)C)[C@@H]3C[C@@H]1C2 | < 4 | > 4 |  |  |  |
| CN(C)c1cc(NCc2cccnc2)c(O)c2c1C[C@H]1C[C@H]3C(N(C)C)C(O)=C(C(N)=O)C(=O)[C@@]3(O)C(O)=C1C2=O (some centres unmarked) [FA] |  |  | > 4 | > 4 |  |
| C[C@H]1c2ccc(/C=C\C(=O)NC(C)(C)C)c(O)c2C(=O)C2=C(O)[C@]3(O)C(=O)C(C(N)=O)=C(O)[C@@H](N(C)C)[C@@H]3[C@@H](O)[C@@H]21 [CU] |  |  | > 4 | > 4 |  |
| CC(=O)Cc1cc(-c2ccccn2)c2c(c1O)C(=O)C1=C(O)[C@]3(O)C(=O)C(C(N)=O)=C(O)[C@@H](N(C)C)[C@@H]3C[C@@H]1C2 | > 4 | > 4 |  |  |  |
| CN(C)[C@@H]1C(O)=C(C(N)=O)C(=O)[C@@]2(O)C(O)=C3C(=O)c4c(O)ccc(-c5ccc(CNC(C)(C)C)o5)c4C[C@H]3C[C@@H]12 [MD] |  |  | < 4 | < 4 |  |
| CN(C)c1cc(CNCc2ccccc2F)c(O)c2c1C[C@H]1C[C@H]3[C@H](N(C)C)C(O)=C(C(N)=O)C(=O)[C@@]3(O)C(O)=C1C2=O | < 4 | > 4 |  |  |  |
| CN(C)c1cc(CNC(=O)Nc2ccc(OC(F)(F)F)cc2)c(O)c2c1C[C@H]1C[C@H]3[C@H](N(C)C)C(O)=C(C(N)=O)C(=O)[C@@]3(O)C(O)=C1C2=O [FO] |  |  | < 4 | > 4 |  |
| COc1ccc(CN(C)C)cc1-c1cc(C(C)(C)C)c(O)c2c1C[C@H]1C[C@H]3[C@H](N(C)C)C(O)=C(C(N)=O)C(=O)[C@@]3(O)C(O)=C1C2=O | < 4 | > 4 |  |  |  |
| CCCCOC(=O)Nc1cc(N(C)C)c2c(c1O)C(=O)C1=C(O)[C@]3(O)C(=O)C(C(N)=O)=C(O)[C@@H](N(C)C)[C@@H]3C[C@@H]1C2 | < 4 | < 4 |  |  |  |
| CN(C)CC(=O)Nc1ccc2c(c1O)C(=O)C1=C(O)[C@]3(O)C(=O)C(C(N)=O)=C(O)[C@@H](N(C)C)[C@@H]3C[C@@H]1C2 [DW] |  |  | < 4 | < 4 |  |
| CN(C)c1cc(Cn2ccc(C=O)c2)c(O)c2c1C[C@H]1C[C@H]3[C@H](N(C)C)C(O)=C(C(N)=O)C(=O)[C@@]3(O)C(O)=C1C2=O | < 4 | > 4 |  |  |  |
| CC#Cc1cc(C#CC)c2c(c1O)C(=O)C1=C(O)[C@]3(O)C(=O)C(C(N)=O)=C(O)[C@@H](N(C)C)[C@@H]3C[C@@H]1C2 | > 4 | > 4 |  |  |  |
| NC(=O)C1=C(O)C[C@@H]2C[C@@H]3Cc4cccc(O)c4C(=O)C3=C(O)[C@]2(O)C1=O | < 4 | < 4 |  |  |  |
| CN(C)c1cc(NC(=O)CNC(C)(C)C)c(O)c2c1C[C@H]1C[C@H]3[C@H](N(C)C)C(O)=C(C(N)=O)C(=O)[C@@]3(O)C(O)=C1C2=O [DZ] |  |  | < 4 | < 4 |  |
| CN(C)c1cc(NC(=O)NC(=O)c2ccccc2)c(O)c2c1C[C@H]1C[C@H]3[C@H](N(C)C)C(O)=C(C(N)=O)C(=O)[C@@]3(O)C(O)=C1C2=O [CH] |  |  | < 4 | > 4 |  |
